The values that follow come from US20260240854A1, “COMBINATIONS OF KRAS INHIBITOR AND ATR INHIBITOR FOR THE TREATMENT OF CANCER” (ASTRAZENECA AB, priority 2023, published 2026).

In the experiment the test system is CT26^G12C murine colon carcinoma cells. The experiment in a line: Anti-tumor study, CT26^G12C tumors grown subcutaneously in immunocompetent BALB/c mice. The format is in vivo. The settings on record: for Survival rate compared to the control group / Tumor return: Example 1, study end day 54. The procedure:
All pathogen-free animals used in the studies below were housed in a controlled, pathogen-free environment with the following conditions: temperature (19-23° C.), humidity (55% 10%), photoperiod (12 h light/dark cycle), and air exchange. Animals were housed in individually vented cages, with food and water provided ad libitum.
Following testing materials were used for the preclinical, in vivo studies below: vehicle (0.5% HPMC/0.1% Tween 80), AZD4625 (0.5% HPMC/0.1% Tween 80), Compound of Formula IV (0.5% HPMC/0.1% Tween 80) and AZD6738 (10% DMSO/40% PG/50% WFI). For the monotherapies, the vehicle and the inhibitors were dosed orally in a volume of 0.05-0.1 mL/10 g. For the combination therapies, AZD4625 or Compound of Formula IV were dosed 4 or 2 hours after the AM dose of AZD6738.
Tumors were measured three times a week by caliper and the volumes were calculated using elliptical formula (pi/6×width×width×length). Animal bodyweight and tumor condition were also recorded for the duration of the study. Subject mice remained on study until tumor size reached 1.5 cm^3 for anti-tumor studies and 0.7 cm^3 for the rechallenge study, clinical signs were observed, or until the study end date.
(§1) For the study, CT26^G12C murine colon carcinoma cells, engineered to express the KRAS^G12C mutation, were grown subcutaneously in BALB/c mice with an intact immune system. To prepare the subject mice, 5×10^5 and 5×10^4 CT26^G12C (G12C clone P5E6) cells were implanted subcutaneously into the right flank of female BALB/c mice (Envigo UK, Strain ID: HSD-162) or female nude-Foxn1nu mice (Envigo UK, Strain ID: HSD-069), respectively. Once a mean volume of approximately 0.2 cm^3 tumor formed, subject mice were randomized into relevant treatment and control groups and treated with vehicle control, AZD4625 or AZD6738 in monotherapy, or in combination therapy for 4 weeks. AZD4625 was dosed daily and AZD6738 was dosed twice daily on a 7 day-on, 7 day-off schedules for the treatment period (FIG. 1A). Tumor growth and bodyweights of animals were monitored during and post-treatment. Subject mice remained on study until tumor size reached 1.5 cm^3, clinical signs were observed, or to the study end date (day 54).
as §1, with “vehicle control, AZD4625, Compound of Formula IV, or AZD6738” for “vehicle control, AZD4625 or AZD6738”, “monotherapy, or AZD4625 and AZD6738 or Compound of Formula IV and AZD6738 in combination” for “monotherapy, or in combination”, “weeks. AZD4625 and Compound of Formula IV were dosed daily” for “weeks. AZD4625 was dosed daily”, “period (FIG. 2A). Tumor growth” for “period (FIG. 1A). Tumor growth”, “study end date. Mice in the AZD4625 monotherapy and combination groups were monitored up to 65 days post-implant while mice in the Compound of Formula IV monotherapy and combination groups were monitored up to 119 days post-implant.” for “study end date (day 54).”
CT26^G12C murine colon carcinoma cells were grown subcutaneously in BALB/c mice with an intact immune system as described in Examples 1 and 2. […] Tumor growth and body weights of animals were monitored during and post-treatment. Subject mice remained on study until tumor size reached 1.5 cm^3, clinical signs were observed, or to the study end.

Setting [1] is: Example 5, 4 weeks treatment, compared to vehicle or to KRAS^G12C inhibitor monotherapy, FIG. 5A.
Setting [2] is: Example 1, 4 weeks oral treatment, compared to control group, FIG. 1B.
The mark [3] stands for this setting: Example 2, 4 weeks oral treatment, FIG. 2B.

Turning to `C=CC(=O)N1CCN(c2nc(=O)n(-c3c(C)ccnc3C(C)C)c3nc(-c4c(O)cccc4F)c(F)cc23)[C@@H](C)C1` (atropisomer, axis not shown) [sotorasib, reference compound], the “Tumor return after drug cessation” value (Example 5) is given as “most tumors returning after drug cessation”. Under setting [1], the Tumor growth response result is recorded as “initial tumor growth delay”. Moreover, the Survival rates entry (Example 5, FIG. 5B) was “increased survival rates”.
With `C[C@@H]1COCCN1c1cc(C2([S@](C)(=N)=O)CC2)nc(-c2ccnc3[nH]ccc23)n1` [AZD6738, 4-{4-[(3R)-3-methylmorpholin-4-yl]-6-[1-((R)—S-methylsulfonimidoyl)cyclopropyl]pyrimidin-2-yl}-1H-pyrrolo[2,3-b]pyridine], the “Survival rate compared to the control group” value was “extended survival rate” and the Tumor return entry is on record as “most tumors ultimately returned”. In addition, the Tumor growth response result under setting [2] is “delayed tumor growth”. For the same compound, the Tumor growth response result under setting [1] is “no or weak activity”.
Take `C=CC(=O)N1CCN2Cc3cc(C#CC)c(-c4c(O)cccc4Cl)c(F)c3OC[C@H]2C1` [Compound of Formula IV, 1-[(12aR)-9-(2-chloro-6-hydroxyphenyl)-10-fluoro-8-(prop-1-yn-1-yl)-3,4,12,12a-tetrahydro-6H-pyrazino[2,1-c][1,4]benzoxazepin-2(1H)-yl]prop-2-en-1-one]: the Tumor growth response result under setting [3] is listed as “tumor regression”. In addition, for the setting “Example 2, monitored up to 119 days post-implant”, the “Tumors returned after drug cessation” value is given as 8 out of 9.
As for `C=CC(=O)N1C[C@@H]2CCOc3c(Cl)c(-c4c(O)cccc4F)c(F)c4ncnc(c34)N2C[C@H]1C` [AZD4625, 1-[(6aS,9R)-3-chloro-1-fluoro-2-(2-fluoro-6-hydroxyphenyl)-9-methyl-5,6,6a,7,9,10-hexahydro-8H-pyrazino[1′,2′:5,6][1,5]oxazocino[4,3,2-de]quinazolin-8-yl]prop-2-en-1-one], the “Survival rate compared to the control group” value is listed as “extended survival rate” and the Tumor return entry was “most tumors ultimately returned”. Also, the Tumor growth response entry under setting [2] is “delayed tumor growth”. Besides, under setting [3], the Tumor growth response result is “tumor regression”.
